Test results as given in publication PMC13194776, “Small-molecule binding and sensing with a designed protein family” (Nature Communications, 2026).
Blank lines part the entries; values can stand above or below the molecule they belong to.

Experiments:
iri807.1 [1] = target: T1, iri807.1; experiment: Fluorescence polarization cross-reactivity assay with TAMRA-labelled ligands at 5 nM (HCY, OHP, WRF) or 10 nM (SN-38) titrated with binder or albumin.; format: binding; conditions: read-out: KD (μM), specificity table, TAMRA-labelled targets
T1 construct: N-terminal hexahistidine tag; 3 mutations compared to the original design
Source text: (§1) measured against all six targets. Raw binding traces can be found in Supplementary

ohp1952 = target: T2, ohp1952; experiment: as above; format: binding; conditions: read-out: KD (μM), specificity table, TAMRA-labelled targets
T2 construct: N-terminal hexahistidine tag; original design
Source text: as §1

roc22182.1 [2] = target: T3, roc22182.1; experiment: as above; format: binding; conditions: read-out: KD (μM), specificity table, TAMRA-labelled targets
T3 construct: N-terminal hexahistidine tag; 9 mutations compared to the original design
Source text: as §1

albumin = target: T4, albumin; experiment: as above; format: binding; conditions: read-out: KD (μM), specificity table, TAMRA-labelled targets
T4 construct: control protein
Source text: as §1

hcy129.1 [3] = target: T5, hcy129.1; experiment: as above; format: binding; conditions: read-out: KD (μM), specificity table, TAMRA-labelled targets
T5 construct: N-terminal hexahistidine tag; 4 mutations compared to the original design
Source text: as §1

wrf1071 [4] = target: T6, wrf1071; experiment: Isothermal titration calorimetry at 25 °C with warfarin or apixaban, 5% DMSO in all solutions, single-site binding model.; conditions: read-out: KD (μM), ITC, warfarin and apixaban
T6 construct: N-terminal hexahistidine tag; original design
Experimental: (§2) Binding affinity of designed proteins was assessed by titrating purified protein with ligand using a microcal PEAQ ITC-Automated instrument. Both protein and ligand were prepared in identical buffers that were degassed by bottle-top filtration. […] All titrations were performed at 25 °C and 19 total injections, 0.4 μL for the first injection and 2 μL for the remaining 18. Resulting titration data were analyzed with the Malvern Panalytical ITC Analysis software, and a single-site binding model was used to fit the resulting data.

wrf929 = target: T7, wrf929; experiment: as above; conditions: read-out: KD (μM), ITC, warfarin and apixaban
T7 construct: N-terminal hexahistidine tag; original design
Experimental: as §2
(§3) Supplementary Table 2. Small-molecule binding characterization results
(§4) Target Design name Number of KD (μM) KD determination

apx1501 = target: T8, apx1501; experiment: as above; conditions: read-out: KD (μM), ITC, warfarin and apixaban
T8 construct: N-terminal hexahistidine tag; original design
Experimental: as §2

apx1493 = target: T9, apx1493; experiment: as above; conditions: read-out: KD (μM), ITC, warfarin and apixaban
T9 construct: N-terminal hexahistidine tag; original design
Experimental: as §2

apx1049 = target: T10, apx1049; experiment: as above; conditions: read-out: KD (μM), ITC, warfarin and apixaban
T10 construct: N-terminal hexahistidine tag; original design
Experimental: as §2

apx2592 = target: T11, apx2592; experiment: as above; conditions: read-out: KD (μM), ITC, warfarin and apixaban
T11 construct: N-terminal hexahistidine tag; original design
Experimental: as §2

[5] = Cross-reactivity FP binding to SN-38-TAMRA; conditions: SN-38-TAMRA 10 nM
Experimental: (§5) Two-fold serial dilutions of the binder protein were prepared in 24 wells with constant amounts of the target ligand, and the plate was incubated at room temperature, shaking for at least 30 min. Fluorescence polarization filter cube (Red FP, EX 530/25 nm;EM 590/35 nm, Agilent) was used to measure polarization with the plate reader (Synergy Neo2, Biotek). A binding isotherm model was used to fit the data and estimate KD.
(§6) We performed an all by all binding experiment between all targets and representative binders for each target. […] Fluorescence polarization filter cube (Red1 FP, EX 530/25 nm;EM 590/35 nm, Agilent) was used to measure polarization. […] Biotinylated APX and ROC were immobilized to the Streptavidin biosensor and all binders were titrated 3-fold starting from 25uM. Other experimental conditions were kept the same as described above for characterization using FP and BLI.

[6] = Cross-reactivity FP binding to HCY-TAMRA; conditions: HCY-TAMRA 5 nM
Experimental: as §5, §6

[7] = Cross-reactivity BLI binding to APX-Biotin; conditions: APX-Biotin immobilized, binders titrated 3-fold from 25uM
Experimental: (§7) Biolayer interferometry (BLI) was used to estimate the binding affinity and screen for binding of the purified proteins and target small-molecules APX, and SN-38. […] 1 μM of small-molecule targets with biotin conjugated (APX-Biotin and SN-38-Biotin) were used as ligands to be immobilized to the Octet Streptavidin biosensors (Sartorius). Titration experiments were performed at 25 °C, and the kinetic response data was collected using Octet RED96 and R8 (ForteBio). The resulting responses of the analytes were corrected using the signal from the reference buffer, and further analysis was performed using the Octet Data Analysis software.
as §6

[8] = Cross-reactivity FP binding to OHP-TAMRA; conditions: OHP-TAMRA 5 nM
Experimental: as §5, §6

[9] = Cross-reactivity BLI binding to ROC-Biotin; conditions: ROC-Biotin immobilized, binders titrated 3-fold from 25uM
Experimental: as §7, §6

wrf1071 [10] = target: T6, wrf1071; experiment: Fluorescence polarization cross-reactivity assay with TAMRA-labelled ligands at 5 nM (HCY, OHP, WRF) or 10 nM (SN-38) titrated with binder or albumin.; format: binding; conditions: read-out: KD (μM), specificity table, TAMRA-labelled targets
Source text: as §1

roc22182 = target: T12, roc22182; experiment: Isothermal titration calorimetry at 25 °C with rocuronium in 20 mM HEPES, 50 mM NaCl, pH 8, no DMSO, single-site binding model.; conditions: read-out: KD (μM), ITC, rocuronium
T12 construct: N-terminal hexahistidine tag; original design
Experimental: as §2, §3, §4

roc22182.1 [11] = target: T3, roc22182.1; experiment: as above; conditions: read-out: KD (μM), ITC, rocuronium
Experimental: as §2, §3, §4

iri807.1 [12] = target: T1, iri807.1; experiment: Fluorescence polarization with 6 nM fluorophore-labelled OHP-AF488 or SN-38-TAMRA titrated with binder protein in PBS at room temperature, binding isotherm fit.; conditions: read-out: KD (μM), FP
Experimental: (§8) Two-fold serial dilutions of the binder protein were prepared in 24 wells with constant amounts of the target ligand, and the plate was incubated at room temperature, shaking for at least 30 min. […] A binding isotherm model was used to fit the data and estimate KD.
as §3, §4

iri3009 = target: T13, iri3009; experiment: as above; conditions: read-out: KD (μM), FP
T13 construct: N-terminal hexahistidine tag; original design
Experimental: as §8, §3, §4

iri807.3 = target: T14, iri807.3; experiment: as above; conditions: read-out: KD (μM), FP
T14 construct: N-terminal hexahistidine tag; 3 mutations compared to the original design
Experimental: as §8, §3, §4

iri807.2 = target: T15, iri807.2; experiment: as above; conditions: read-out: KD (μM), FP
T15 construct: N-terminal hexahistidine tag; 3 mutations compared to the original design
Experimental: as §8, §3, §4

iri807 = target: T16, iri807; experiment: as above; conditions: read-out: KD (μM), FP
T16 construct: N-terminal hexahistidine tag; original design
Experimental: as §8, §3, §4

[13] = test system: hcy129.1_CID-SmBiT and miniH11_LgBiT; experiment: Cortisol-induced dimerization NanoBiT luminescent sensor; format: biochemical; conditions: sensor components 200 nM each, 2 h, DTZ 25 μM; estimated; read-out: EC50 of luminescent signal
Experimental: Immediately after adding the luciferase substrate diphenylterazine (DTZ) at a final concentration of 25 μΜ, the luminescent signal was measured on a Neo2 plate reader (Fig. 4H).
hcy129.1_CID (200 nM) and minibinder designed for CID (miniH11, 200 nM) was titrated with various
ligands and incubated for 2 hours, followed by addition of DTZ (25 μM) to initiate luminescence reaction.
All reactions were carried out at 50 μL final volume in HBS-EP+ buffer (Cytiva).

hcy129_mpnn5 = target: T17, hcy129_mpnn5; experiment: Isothermal titration calorimetry at 25 °C with cortisol, 1% DMSO in all solutions, single-site binding model.; conditions: read-out: KD (μM), ITC, cortisol
T17 construct: ProteinMPNN surface-redesigned version; 9 mutations compared to the original design as printed
Experimental: as §2, §3, §4

hcy129.1_CID = target: T18, hcy129.1_CID; experiment: as above; conditions: read-out: KD (μM), ITC, cortisol
T18 construct: 7 mutations compared to the original design
Experimental: as §2, §3, §4

hcy129 = target: T19, hcy129; experiment: as above; conditions: read-out: KD (μM), ITC, cortisol
T19 construct: N-terminal hexahistidine tag; original design
Experimental: as §2, §3, §4

hcy129.1 [14] = target: T5, hcy129.1; experiment: as above; conditions: read-out: KD (μM), ITC, cortisol
Experimental: as §2, §3, §4

hcy129.1 [15] = target: T5, hcy129.1; experiment: Isothermal titration calorimetry of purified designs with unlabelled ligand at 25 °C, single-site fit; 1% DMSO for cortisol, 5% DMSO for warfarin and apixaban, HEPES pH 8 for rocuronium.; format: binding; conditions: read-out: KD (μM) ITC
Experimental: Characterization of binding affinity by ITC
as §2

Molecule: 17α-hydroxyprogesterone-TAMRA (TAMRA conjugate) [OHP-TAMRA]
Kd (iri807.1 [1]): 0.27 µM
Kd (ohp1952): 0.005 µM
Kd (roc22182.1 [2]): 0.078 µM
Kd (albumin): 52 µM
Kd (hcy129.1 [3]): 0.005 µM

Molecule: CC(=O)CC(c1ccccc1)c1c(O)c2ccccc2oc1=O (stereo not drawn) [warfarin, warfarin (WRF)]
Kd (wrf1071 [4]): 0.83 µM
Kd (wrf929): 5.9 µM

Kd (apx1501): 5.5 µM
Kd (apx1493): 9.67 µM
Kd (apx1049): 0.679 µM
Kd (apx2592): 3.16 µM
Molecule: COc1ccc(-n2nc(C(N)=O)c3c2C(=O)N(c2ccc(N4CCCCC4=O)cc2)CC3)cc1 [apixaban, apixaban (APX)]

Binding affinity KD [5]: No binding
Binding affinity KD ([5]; listed as albumin): no binding
Binding affinity KD [6]: No binding
Binding affinity KD ([6]; listed as albumin): no binding
Binding affinity KD [7]: No binding
Binding affinity KD ([7]; listed as albumin): no binding
Binding affinity KD [8]: weak binding
Binding affinity KD [9]: No binding
Binding affinity KD ([9]; listed as albumin): no binding
Molecule: Albumin: control protein known for promiscuous binding to hydrophobic ligands; bovine serum albumin per b230

Molecule: cortisol-TAMRA (TAMRA conjugate of cortisol) [HCY-TAMRA]
Kd (wrf1071 [10]): 67 µM
Kd (iri807.1 [1]): 26 µM
Kd (roc22182.1 [2]): 1.4 µM
Kd (hcy129.1 [3]): 0.005 µM

Molecule: C=CC[N+]1([C@H]2C[C@H]3[C@@H]4CC[C@H]5C[C@H](O)[C@@H](N6CCOCC6)C[C@]5(C)[C@H]4CC[C@]3(C)[C@H]2OC(C)=O)CCCC1 [rocuronium, rocuronium (ROC)]
Kd (roc22182): > 50 µM
Kd (roc22182.1 [11]): > 4 µM

Molecule: SN-38-TAMRA (fluorophore linker conjugate of SN-38)
Kd (iri807.1 [12]): 0.059 µM
Kd (iri3009): 1.41 µM
Kd (iri807.3): 0.016 µM
Kd (iri807.2): 0.063 µM
Kd (iri807): 0.09 µM
Kd (wrf1071 [10]): 42 µM
Kd (iri807.1 [1]): 0.048 µM

Molecule: C[C@]12CCC(=O)C=C1CC[C@@H]1[C@@H]2[C@@H](O)C[C@@]2(C)[C@H]1CC[C@]2(O)C(=O)CO [cortisol]
EC50 [13]: 72 nM

Molecule: C[C@]12CCC(=O)C=C1CC[C@@H]1[C@@H]2[C@@H](O)C[C@@]2(C)[C@H]1CC[C@]2(O)C(=O)CO [cortisol, cortisol (HCY)]
Kd (hcy129_mpnn5): 3.4 µM
Kd (hcy129.1_CID): 0.064 µM
Kd (hcy129): 2.3 µM
Kd (hcy129.1 [14]): 0.065 µM
Kd (hcy129.1 [15]): 0.068 µM
